Format in all cases: in vivo
What all share (details): 250 g/ha, evaluated after 13 days

Assay [1] deals with Amaranthus palmeri (AMAPA). The assay is described as follows: Pre-emergence herbicide glasshouse test. Put shortly:
(§1)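 Spray: acetone/water 50:50 + 0.5% Tween 20, 250 g/ha unless stated; 1 d (pre) or 8 d (post) after sowing. Glasshouse 24/16° C, 14 h light, 65% RH, watered twice daily. Read-out at 13 d: % damage binned 1–5 (5=81-100%, 1=0-20%).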

For assay [2], the system named is Amaranthus retoflexus (AMARE). Put plainly: Pre-emergence herbicide glasshouse test. An outline of the steps:
as §1

Assay [3] deals with Ipomoea hederacea (IPOHE). Put plainly: Pre-emergence herbicide glasshouse test. An outline of the steps:
as §1

Assay [4] concerns Echinochloa crus-galli (ECHCG). The assay is described as follows: Pre-emergence herbicide glasshouse test. Put shortly:
as §1

The subject of assay [5] is Amaranthus palmeri (AMAPA). Put plainly: Post-emergence herbicide glasshouse test. An outline of the steps: as §1
Assay [6] deals with Amaranthus retoflexus (AMARE). Put plainly: Post-emergence herbicide glasshouse test. An outline of the steps: as §1
Assay [7] deals with Ipomoea hederacea (IPOHE). Put plainly: Post-emergence herbicide glasshouse test. Put shortly: as §1
Assay [8] relates to Echinochloa crus-galli (ECHCG). The assay is described as follows: Post-emergence herbicide glasshouse test. An outline of the steps: as §1

Consider `Fc1ccc(-c2nc(C(F)(F)F)cn2Cc2ccc(Cl)s2)cc1F` [Compound 1.173], for which the results for the “percentage damage caused to the plant, AMAPA (five-point scale)” value in assay [1] and in assay [5] were 5 (5=81-100%) and 4 (4=61-80%), respectively. In addition, the “percentage damage caused to the plant, AMARE (five-point scale)” value in assay [2] and in assay [6] was 5 (5=81-100%) in each case. Also, the “percentage damage caused to the plant, IPOHE (five-point scale)” value in assay [3] and in assay [7] was 1 (1=0-20%) in each case. For the same compound, the entries for the “percentage damage caused to the plant, ECHCG (five-point scale)” value in assay [4] and in assay [8] were 1 (1=0-20%) and 2 (2=21-40%), respectively.
In the case of `Fc1cc(-c2nc(C(F)(F)F)cn2Cc2ccc(Cl)s2)cnc1Cl` [Compound 1.174], the “percentage damage caused to the plant, AMAPA (five-point scale)” value in assay [1] and in assay [5] was 5 (5=81-100%) throughout. Further, the “percentage damage caused to the plant, AMARE (five-point scale)” value in assay [2] and in assay [6] was 5 (5=81-100%) in each case. Further, the entries for the “percentage damage caused to the plant, IPOHE (five-point scale)” value in assay [3] and in assay [7] were 1 (1=0-20%) and 2 (2=21-40%), respectively. In addition, the “percentage damage caused to the plant, ECHCG (five-point scale)” value in assay [4] and in assay [8] was 1 (1=0-20%) in each case.
As to `CS(=O)(=O)c1ccc(-c2nc(C(F)(F)F)cn2Cc2ccc(Cl)s2)cc1` [Compound 1.175], the “percentage damage caused to the plant, AMAPA (five-point scale)” value in assay [1] and in assay [5] was 4 (4=61-80%) in each case. Moreover, the “percentage damage caused to the plant, AMARE (five-point scale)” value in assay [2] is given as 5 (5=81-100%); in assay [6], 4 (4=61-80%). The “percentage damage caused to the plant, IPOHE (five-point scale)” value is 1 (1=0-20%) in assay [3] and 2 (2=21-40%) in assay [7]. Also, the “percentage damage caused to the plant, ECHCG (five-point scale)” value is reported as 2 (2=21-40%) in assay [4] and 1 (1=0-20%) in assay [8].
With `Cc1noc(Cn2cc(C(F)(F)F)nc2-c2ccc(S(C)(=O)=O)cc2)n1` [Compound 1.176], the “percentage damage caused to the plant, AMAPA (five-point scale)” value in assay [1] and in assay [5] was 1 (1=0-20%) in each case. In addition, the “percentage damage caused to the plant, AMARE (five-point scale)” value in assay [2] and in assay [6] was 1 (1=0-20%) throughout. Moreover, the “percentage damage caused to the plant, IPOHE (five-point scale)” value in assay [3] and in assay [7] was 1 (1=0-20%) in each case. The “percentage damage caused to the plant, ECHCG (five-point scale)” value in assay [4] and in assay [8] was 1 (1=0-20%) throughout.
`Cc1cc(Cn2cc(C(F)(F)F)nc2-c2ccc(S(C)(=O)=O)cc2)no1` [Compound 1.177]: the “percentage damage caused to the plant, AMAPA (five-point scale)” value in assay [1] and in assay [5] was 5 (5=81-100%) each time. In addition, the “percentage damage caused to the plant, AMARE (five-point scale)” value in assay [2] and in assay [6] was 5 (5=81-100%) each time. In addition, the “percentage damage caused to the plant, IPOHE (five-point scale)” value in assay [3] and in assay [7] was 5 (5=81-100%) throughout. For the same compound, the results for the “percentage damage caused to the plant, ECHCG (five-point scale)” value in assay [4] and in assay [8] were 5 (5=81-100%) and 3 (3=41-60%), respectively.
For `Cc1nnc(Cn2cc(C(F)(F)F)nc2-c2ccc([S+](C)[O-])cc2)s1` (stereo not shown) [Compound 1.178], the “percentage damage caused to the plant, AMAPA (five-point scale)” value in assay [1] was 3 (3=41-60%); in assay [5], 1 (1=0-20%). Further, the “percentage damage caused to the plant, AMARE (five-point scale)” value in assay [2] is on record as 3 (3=41-60%); in assay [6], 1 (1=0-20%). Moreover, the “percentage damage caused to the plant, IPOHE (five-point scale)” value in assay [3] is reported as 4 (4=61-80%); in assay [7] it was 1 (1=0-20%). The “percentage damage caused to the plant, ECHCG (five-point scale)” value in assay [4] and in assay [8] was 1 (1=0-20%) each time.
Consider `CCON=Cc1cn(Cc2cc(C)on2)c(-c2cnc(Cl)c(F)c2)n1` [Compound 1.179], for which the “percentage damage caused to the plant, AMAPA (five-point scale)” value is 5 (5=81-100%) in assay [1] and 3 (3=41-60%) in assay [5]. The “percentage damage caused to the plant, AMARE (five-point scale)” value in assay [2] was 4 (4=61-80%); in assay [6], 3 (3=41-60%). Moreover, the “percentage damage caused to the plant, IPOHE (five-point scale)” value in assay [3] and in assay [7] was 1 (1=0-20%) throughout. For the same compound, the “percentage damage caused to the plant, ECHCG (five-point scale)” value in assay [4] and in assay [8] was 1 (1=0-20%) in each case.
As for `CON=Cc1cn(Cc2ncn(C)n2)c(-c2cnc(Cl)c(F)c2)n1` [Compound 1.180], the “percentage damage caused to the plant, AMAPA (five-point scale)” value in assay [1] is 4 (4=61-80%); in assay [5], 2 (2=21-40%). Further, the “percentage damage caused to the plant, AMARE (five-point scale)” value in assay [2] is recorded as 5 (5=81-100%); in assay [6], 1 (1=0-20%). The “percentage damage caused to the plant, IPOHE (five-point scale)” value in assay [3] is recorded as 5 (5=81-100%); in assay [7] it was 4 (4=61-80%). Besides, the “percentage damage caused to the plant, ECHCG (five-point scale)” value in assay [4] and in assay [8] was 1 (1=0-20%) throughout.
Consider `Cc1nnc(Cn2cc(C(F)(F)F)nc2-c2cnc(Cl)c(F)c2)o1` [Compound 1.181], for which the entries for the “percentage damage caused to the plant, AMAPA (five-point scale)” value in assay [1] and in assay [5] were 5 (5=81-100%) and 4 (4=61-80%), respectively. In addition, the “percentage damage caused to the plant, AMARE (five-point scale)” value in assay [2] is 5 (5=81-100%); in assay [6] it was 4 (4=61-80%). Also, the results for the “percentage damage caused to the plant, IPOHE (five-point scale)” value in assay [3] and in assay [7] were 4 (4=61-80%) and 1 (1=0-20%), respectively. Also, the figures for the “percentage damage caused to the plant, ECHCG (five-point scale)” value in assay [4] and in assay [8] were 3 (3=41-60%) and 1 (1=0-20%), respectively.
As for `Cn1cnc(Cn2cc(C#N)nc2-c2cnc(Cl)c(F)c2)n1` [Compound 1.182], the “percentage damage caused to the plant, AMAPA (five-point scale)” value is 5 (5=81-100%) in assay [1] and 4 (4=61-80%) in assay [5]. Moreover, the “percentage damage caused to the plant, AMARE (five-point scale)” value in assay [2] and in assay [6] was 5 (5=81-100%) each time. Also, the “percentage damage caused to the plant, IPOHE (five-point scale)” value in assay [3] is on record as 5 (5=81-100%); in assay [7], 3 (3=41-60%). In addition, the “percentage damage caused to the plant, ECHCG (five-point scale)” value in assay [4] is recorded as 4 (4=61-80%); in assay [8], 3 (3=41-60%).
With `Cc1nnc(Cn2cc(C(F)(F)F)nc2-c2ccc(F)c(F)c2)o1` [Compound 1.183], the “percentage damage caused to the plant, AMAPA (five-point scale)” value in assay [1] and in assay [5] was 5 (5=81-100%) throughout. Also, the “percentage damage caused to the plant, AMARE (five-point scale)” value in assay [2] and in assay [6] was 5 (5=81-100%) in each case. Moreover, the “percentage damage caused to the plant, IPOHE (five-point scale)” value in assay [3] is recorded as 5 (5=81-100%); in assay [7], 4 (4=61-80%). Further, the “percentage damage caused to the plant, ECHCG (five-point scale)” value in assay [4] was 3 (3=41-60%); in assay [8], 2 (2=21-40%).

The values above are taken from patent publication US20260125360A1, “HERBICIDAL IMIDAZOLE COMPOUNDS” (SYNGENTA CROP PROTECTION AG, priority 2022, published 2026).
